Assay results as given in ChEMBL document CHEMBL5236635, “Structure-Based Drug Design and Synthesis of Novel N-Aryl-2,4-bithiazole-2-amine CYP1B1-Selective Inhibitors in Overcoming Taxol Resistance in A549 Cells” (J Med Chem, 2022).

Legend:
CYP1B1 = target: T1, CYP1B1 (Homo sapiens, UniProt Q16678); experiment: Inhibition of recombinant human CYP1B1 assessed as inhibition ratio at 100 nM using 7-ethyl-0-resorufin as substrate incubated for 30 mins in presence of NADPH by EROD assay relative to control; settings: recombinant human CYP1B1, probe 7-ethyl-0-resorufin
T1 sequence (Q16678 whole entry): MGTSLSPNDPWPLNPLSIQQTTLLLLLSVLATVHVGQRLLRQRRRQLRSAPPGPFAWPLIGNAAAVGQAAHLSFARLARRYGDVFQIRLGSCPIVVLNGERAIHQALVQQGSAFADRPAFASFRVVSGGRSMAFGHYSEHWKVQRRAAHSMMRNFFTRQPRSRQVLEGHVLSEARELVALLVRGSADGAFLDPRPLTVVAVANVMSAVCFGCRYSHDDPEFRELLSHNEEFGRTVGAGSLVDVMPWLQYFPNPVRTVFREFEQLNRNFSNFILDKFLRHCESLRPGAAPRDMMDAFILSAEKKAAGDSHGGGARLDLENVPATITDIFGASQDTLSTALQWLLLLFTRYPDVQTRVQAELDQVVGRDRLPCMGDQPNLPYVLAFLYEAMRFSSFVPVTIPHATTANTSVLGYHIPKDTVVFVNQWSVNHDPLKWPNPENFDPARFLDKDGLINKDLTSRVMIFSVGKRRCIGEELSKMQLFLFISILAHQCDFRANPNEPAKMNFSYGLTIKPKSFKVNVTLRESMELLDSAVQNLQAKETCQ

Cytochrome P450 1B1 = target: T2, Cytochrome P450 1B1 (Homo sapiens, UniProt Q16678); experiment: Inhibition of recombinant human CYP1B1 using 7-ethyl-0-resorufin as substrate incubated for 30 mins in presence of NADPH by EROD assay
T2 sequence (Q16678 whole entry): T1 sequence (Q16678 whole entry)

Cytochrome P450 1A1 = target: T3, Cytochrome P450 1A1 (Homo sapiens, UniProt P04798); experiment: Inhibition of recombinant human CYP1A1 using 7-ethyl-0-resorufin as substrate incubated for 30 mins in presence of NADPH by EROD assay
T3 sequence (P04798 whole entry): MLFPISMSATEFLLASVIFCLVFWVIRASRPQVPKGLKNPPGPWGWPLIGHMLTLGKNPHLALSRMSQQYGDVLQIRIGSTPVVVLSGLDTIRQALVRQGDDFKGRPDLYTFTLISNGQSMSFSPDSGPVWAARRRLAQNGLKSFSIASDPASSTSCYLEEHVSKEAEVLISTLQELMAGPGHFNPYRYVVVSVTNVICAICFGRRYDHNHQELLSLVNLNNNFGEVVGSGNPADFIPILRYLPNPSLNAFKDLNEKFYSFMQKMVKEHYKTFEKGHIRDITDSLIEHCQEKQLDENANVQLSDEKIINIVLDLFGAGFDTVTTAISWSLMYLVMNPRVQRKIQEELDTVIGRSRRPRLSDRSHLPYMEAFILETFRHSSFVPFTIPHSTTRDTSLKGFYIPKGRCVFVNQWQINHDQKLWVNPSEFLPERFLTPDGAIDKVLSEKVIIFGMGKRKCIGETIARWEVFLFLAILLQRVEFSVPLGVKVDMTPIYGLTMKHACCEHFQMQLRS

Cytochrome P450 1A2 = target: T4, Cytochrome P450 1A2 (Homo sapiens, UniProt P05177); experiment: Inhibition of recombinant human CYP1A2 using 7-ethyl-0-resorufin as substrate incubated for 30 mins in presence of NADPH by EROD assay
T4 sequence (P05177 whole entry): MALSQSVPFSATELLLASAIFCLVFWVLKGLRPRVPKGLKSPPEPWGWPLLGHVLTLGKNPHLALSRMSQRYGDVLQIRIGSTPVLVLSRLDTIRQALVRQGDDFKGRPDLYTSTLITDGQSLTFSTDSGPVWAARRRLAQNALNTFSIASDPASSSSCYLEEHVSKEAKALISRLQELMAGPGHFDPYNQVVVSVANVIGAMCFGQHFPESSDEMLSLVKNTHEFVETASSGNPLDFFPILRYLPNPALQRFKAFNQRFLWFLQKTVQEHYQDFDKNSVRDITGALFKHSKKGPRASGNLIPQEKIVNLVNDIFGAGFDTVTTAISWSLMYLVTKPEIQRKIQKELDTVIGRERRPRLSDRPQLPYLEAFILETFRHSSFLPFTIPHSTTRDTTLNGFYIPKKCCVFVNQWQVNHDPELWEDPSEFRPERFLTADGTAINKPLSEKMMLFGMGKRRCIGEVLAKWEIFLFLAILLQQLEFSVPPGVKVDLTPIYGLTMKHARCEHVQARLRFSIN

CYP1A1 versus CYP1B1 = experiment: Selectivity index, ratio of IC50 for inhibition of recombinant human CYP1A1 to IC50 for inhibition of recombinant human CYP1B1; settings: recombinant human CYP1A1 and recombinant human CYP1B1
CYP1A2 versus CYP1B1 = experiment: Selectivity index, ratio of IC50 for inhibition of recombinant human CYP1A2 to IC50 for inhibition of recombinant human CYP1B1; settings: recombinant human CYP1A2 and recombinant human CYP1B1

SMILES | inhibition at 0.5 h, 0.1 µM (CYP1B1) | IC50 (Cytochrome P450 1B1) | IC50 (Cytochrome P450 1A1) | IC50 (Cytochrome P450 1A2) | selectivity ratio (CYP1A1 versus CYP1B1) | selectivity ratio (CYP1A2 versus CYP1B1)
c1csc(-c2csc(Nc3ccc(N4CCNCC4)cc3)n2)n1 | 43.7% |  |  |  |  | 
Fc1ccc(Nc2nc(-c3nccs3)cs2)nc1 | 75% |  |  |  |  | 
CC(=O)Nc1cccc(Nc2nc(-c3nccs3)cs2)c1 | 93.7% |  |  |  |  | 
COc1cc(Nc2nc(-c3nc(-c4ccccc4)c(C)s3)cs2)cc(OC)c1 |  | 64.8 nM | 388 nM | 913 nM | 5.98 | 14.1
COc1ccc(Nc2nc(-c3nccs3)cs2)cc1OC | 78.9% |  |  |  |  | 
COc1cc(Nc2nc(-c3nc(-c4ccccc4)cs3)cs2)cc(OC)c1 |  | 3.92 nM | 222 nM |  |  | 
Clc1ccccc1Nc1nc(-c2nccs2)cs1 | 72.8% |  |  |  |  | 
C#CCOc1ccccc1-c1csc(-c2csc(Nc3cc(OC)cc(OC)c3)n2)n1 |  | 77.6 nM | 271 nM | 916 nM | 3.49 | 11.8
COc1cc(Nc2nc(-c3nc(-c4ccccc4)c(-c4ccccc4)s3)cs2)cc(OC)c1 |  | 86.2 nM | 524 nM | > 10000 nM | 6.08 | > 116
CCc1sc(-c2csc(Nc3cc(Cl)cc(Cl)c3)n2)nc1-c1ccccc1 |  | 29.5 nM | 99.9 nM | 227 nM | 3.39 | 7.69
COc1ccc(-c2csc(-c3csc(Nc4cc(OC)cc(OC)c4)n3)n2)cc1 |  | 51.3 nM | 823 nM |  |  | 
Oc1ccc(Nc2nc(-c3nccs3)cs2)cc1 | 73.9% |  |  |  |  | 
COc1ccc(-c2csc(-c3csc(Nc4cccc(F)c4)n3)n2)cc1OC |  | 567 nM | 210 nM | 31.6 nM | 0.37 | 0.06
COc1cc(Nc2nc(-c3nc(-c4cccc(C#N)c4)cs3)cs2)cc(OC)c1 |  | 16.7 nM | 552 nM |  |  | 
c1cnc2ccc(Nc3nc(-c4nccs4)cs3)cc2c1 | 93.4% |  |  |  |  | 
Fc1ccc(Nc2nc(-c3nccs3)cs2)cc1 | 92% | 35.7 nM | 957 nM |  |  | 
COc1ccccc1Nc1nc(-c2nccs2)cs1 | 60% |  |  |  |  | 
Fc1cc(Cl)ccc1-c1csc(-c2csc(Nc3ccc(N4CCOCC4)cc3)n2)n1 |  | 534 nM | > 10000 nM | 995 nM |  | 1.86
c1ccc(Nc2nc(-c3nccs3)cs2)cc1 | 56.4% |  |  |  |  | 

SMILES | inhibition at 0.5 h, 0.1 µM (CYP1B1) | IC50 (Cytochrome P450 1B1) | IC50 (Cytochrome P450 1A1) | IC50 (Cytochrome P450 1A2) | selectivity ratio (CYP1A1 versus CYP1B1) | selectivity ratio (CYP1A2 versus CYP1B1)
COc1cc(Nc2nc(-c3nc(-c4ccc(F)cc4)cs3)cs2)cc(OC)c1 |  | 65.1 nM | > 10000 nM |  |  | 
c1ccc(-c2csc(-c3csc(Nc4ccc(N5CCOCC5)cc4)n3)n2)nc1 |  | 12.9 nM | 47.9 nM | 11700 nM | 3.71 | 905
Clc1cc(Cl)cc(Nc2nc(-c3nc(-c4ccccc4)c(-c4ccccc4)s3)cs2)c1 |  | 39 nM | 1920 nM | 381 nM | 49.3 | 9.77
C#CCOc1ccccc1-c1csc(-c2csc(Nc3cccc(F)c3)n2)n1 |  | 22.2 nM | 125 nM | 1040 nM | 5.64 | 46.8
COc1cc(Nc2nc(-c3nc(-c4ccccc4Cl)cs3)cs2)cc(OC)c1 |  | 8.07 nM | 323 nM | 1250 nM | 40 | 155
Fc1cccc(Nc2nc(-c3nc(-c4ccccn4)cs3)cs2)c1 |  | 11.8 nM | 314 nM |  |  | 
COc1cc(Nc2nc(-c3nc(-c4ccc(Cl)cc4F)cs3)cs2)cc(OC)c1 |  | 12.7 nM | > 10000 nM | > 10000 nM |  | 
O=[N+]([O-])c1cccc(Nc2nc(-c3nccs3)cs2)c1 | 57.6% |  |  |  |  | 
c1csc(-c2csc(Nc3ccc(-n4cncn4)cc3)n2)n1 | 82% |  |  |  |  | 
Clc1cc(Cl)cc(Nc2nc(-c3nc(-c4cccnc4)cs3)cs2)c1 |  | 33.1 nM | 387 nM | 227 nM | 11.7 | 6.85
CCc1sc(-c2csc(Nc3cccc(F)c3)n2)nc1-c1ccccc1 |  | 246 nM | 246 nM |  |  | 
Fc1ccccc1Nc1nc(-c2nccs2)cs1 | 89.6% |  |  |  |  | 
CN1CCN(c2ccc(Nc3nc(-c4nccs4)cs3)cc2)CC1 | 51% |  |  |  |  | 
Oc1cccc(Nc2nc(-c3nccs3)cs2)c1 | 72.8% |  |  |  |  | 
c1cncc(-c2csc(-c3csc(Nc4ccc(N5CCOCC5)cc4)n3)n2)c1 |  | 15.9 nM | 22.4 nM | 2550 nM | 1.4 | 160
Clc1cccc(Nc2nc(-c3nccs3)cs2)c1 | 90% | 7.6 nM | 262 nM |  |  | 
Fc1ccc(-c2csc(-c3csc(Nc4ccc(N5CCOCC5)cc4)n3)n2)cc1 |  | 1620 nM | 169 nM | 1560 nM | 0.1 | 0.97
O=[N+]([O-])c1ccc(Nc2nc(-c3nccs3)cs2)cc1 | 41.3% |  |  |  |  | 
Clc1cc(Cl)cc(Nc2nc(-c3nc(-c4ccncc4)cs3)cs2)c1 |  | 14.4 nM | 1020 nM | 2340 nM | 70.4 | 162

SMILES | inhibition at 0.5 h, 0.1 µM (CYP1B1) | IC50 (Cytochrome P450 1B1) | IC50 (Cytochrome P450 1A1) | IC50 (Cytochrome P450 1A2) | selectivity ratio (CYP1A1 versus CYP1B1) | selectivity ratio (CYP1A2 versus CYP1B1)
Fc1cccc(Nc2nc(-c3nc(-c4ccccc4)cs3)cs2)c1 |  | 6.49 nM | 1270 nM |  |  | 
Fc1cccc(Nc2nc(-c3nc(-c4ccc(Cl)cc4F)cs3)cs2)c1 |  | > 1000 nM | > 10000 nM | > 10000 nM |  | 
Clc1cc(Cl)cc(Nc2nc(-c3nc(-c4ccccc4)cs3)cs2)c1 |  | 20.1 nM | 896 nM |  |  | 
Nc1cccc(Nc2nc(-c3nccs3)cs2)c1 | 57.9% |  |  |  |  | 
Fc1cccc(Nc2nc(-c3nc(-c4cccnc4)cs3)cs2)c1 |  | 0.551 nM | 30.3 nM |  |  | 
Clc1cc(Cl)cc(Nc2nc(-c3nc(-c4ccccc4Cl)cs3)cs2)c1 |  | 6.64 nM | 1120 nM |  |  | 
COc1cc(Nc2nc(-c3nc(-c4cccc(Cl)c4)cs3)cs2)cc(OC)c1 |  | 15.9 nM | 6520 nM |  |  | 
c1cc(Nc2nc(-c3nccs3)cs2)cc(-n2ccnc2)c1 | 92.4% |  |  |  |  | 
Fc1cccc(Nc2nc(-c3nc(-c4ccccc4)c(-c4ccccc4)s3)cs2)c1 |  | 518 nM | 6780 nM |  |  | 
COc1ccc(Nc2nc(-c3nccs3)cs2)cc1 | 78% |  |  |  |  | 
Fc1ccc(Nc2nc(-c3nccs3)cs2)cc1Cl | 94.1% |  |  |  |  | 
COc1cc(Nc2nc(-c3nc(-c4cccc(F)c4)cs3)cs2)cc(OC)c1 |  | 11.1 nM | 820 nM |  |  | 
c1cc(Nc2nc(-c3nccs3)cs2)c2cccnc2c1 | 36% |  |  |  |  | 
Nc1ccc(Nc2nc(-c3nccs3)cs2)cc1 | 54% |  |  |  |  | 
COc1cccc(Nc2nc(-c3nccs3)cs2)c1 | 94.2% |  | 414 nM |  | 5.39 | 
N#Cc1ccc(Nc2nc(-c3nccs3)cs2)cc1 | 81.5% |  |  |  |  | 
Clc1ccc(Nc2nc(-c3nccs3)cs2)nc1 | 78.8% |  |  |  |  | 
c1ccc2cc(Nc3nc(-c4nccs4)cs3)ccc2c1 | 80% |  |  |  |  | 
